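Cultured in 96-well plates, cells were exposed to test compound for 48 hours across five concentrations. At the GI50, growth is halved.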 The source made the active and inactive calls. No stated cut-off is given here; in the data, active = GI50 up to about 1.1 µM and inactive = higher.
Legend:
Assay in all cases: NCI tumour cell line growth inhibition, 48 h
RPMI-8226 = tested on: RPMI-8226
DLD-1 = tested on: DLD-1
DMS-273 = tested on: DMS-273
SR = tested on: SR
U-251 = tested on: U-251
LOX IMVI = tested on: LOX IMVI
DMS-114 = tested on: DMS-114
SK-MEL-28 = tested on: SK-MEL-28
SF-539 = tested on: SF-539
SW-620 = tested on: SW-620
SK-OV-3 = tested on: SK-OV-3
T47D = tested on: T47D
UACC-62 = tested on: UACC-62
CCRF-CEM = tested on: CCRF-CEM
CAKI-1 = tested on: CAKI-1
Hs-578T = tested on: Hs-578T
SK-MEL-2 = tested on: SK-MEL-2
K562 = tested on: K562
KM-20L2 = tested on: KM-20L2
OVCAR-4 = tested on: OVCAR-4
KM12 = tested on: KM12
SF-268 = tested on: SF-268
HCC 2998 = tested on: HCC 2998
MCF7 = tested on: MCF7
MDA-MB-435 = tested on: MDA-MB-435
OVCAR-5 = tested on: OVCAR-5
786-0 = tested on: 786-0
COLO 205 = tested on: COLO 205
HOP-62 = tested on: HOP-62
NCI-H460 = tested on: NCI-H460
PC-3 = tested on: PC-3
NCI-H226 = tested on: NCI-H226
SK-MEL-5 = tested on: SK-MEL-5
MDA-N = tested on: MDA-N
XF498 = tested on: XF498
HCT-15 = tested on: HCT-15
OVCAR-3 = tested on: OVCAR-3
HOP-92 = tested on: HOP-92
HCT-116 = tested on: HCT-116
ACHN = tested on: ACHN
SNB-19 = tested on: SNB-19
BT-549 = tested on: BT-549
HT-29 = tested on: HT-29
HOP-18 = tested on: HOP-18
SN12C = tested on: SN12C
MDA-MB-231 = tested on: MDA-MB-231
SF-295 = tested on: SF-295
UACC-257 = tested on: UACC-257
IGROV-1 = tested on: IGROV-1
RXF 393 = tested on: RXF 393
M14 = tested on: M14
EKVX = tested on: EKVX
TK-10 = tested on: TK-10
NCI-H23 = tested on: NCI-H23
DU-145 = tested on: DU-145
NCI-H522 = tested on: NCI-H522
Malme-3M = tested on: Malme-3M
UO-31 = tested on: UO-31
A549 = tested on: A549
A498 = tested on: A498
SNB-75 = tested on: SNB-75
OVCAR-8 = tested on: OVCAR-8
HL-60 = tested on: HL-60
M19-MEL = tested on: M19-MEL
SNB-78 = tested on: SNB-78
MOLT-4 = tested on: MOLT-4
LXFL 529 = tested on: LXFL 529
NCI/ADR-RES = tested on: NCI/ADR-RES

Measured: GI50

CC(=O)OC1C(O)C(C)OC(OC2C(OC(=O)C3CCC4C(C3)OC3(CC(OC(=O)/C=C/c5ccccc5)C(C)CO3)C43CO3)OC(C)C(O)C2OC(C)=O)C1O (stereo not given)
active: RPMI-8226 0.00227 µM | DLD-1 0.38 µM | DMS-273 0.0259 µM | SR 0.00258 µM | U-251 0.00679 µM | LOX IMVI 0.00463 µM | DMS-114 0.0251 µM | SK-MEL-28 0.008 µM | SF-539 0.00736 µM | SW-620 0.0111 µM | SK-OV-3 0.0145 µM | T47D 0.00216 µM | UACC-62 0.0108 µM | CCRF-CEM 0.00351 µM | CAKI-1 0.285 µM | Hs-578T 0.00124 µM | SK-MEL-2 0.00561 µM | K562 0.00622 µM | KM-20L2 0.041 µM | OVCAR-4 0.00752 µM | KM12 0.00912 µM | SF-268 0.00849 µM | HCC 2998 0.00358 µM | MCF7 0.00429 µM | MDA-MB-435 0.000668 µM | OVCAR-5 0.0291 µM | 786-0 0.0132 µM | COLO 205 0.0078 µM | HOP-62 0.00951 µM | NCI-H460 0.0131 µM | PC-3 0.00513 µM | NCI-H226 0.0142 µM | SK-MEL-5 0.00418 µM | MDA-N 0.00269 µM | XF498 0.0357 µM | OVCAR-3 0.0115 µM | HOP-92 0.00581 µM | HCT-116 0.00661 µM | ACHN 0.0925 µM | SNB-19 0.00617 µM | BT-549 0.00358 µM | HT-29 0.00689 µM | HOP-18 0.0906 µM | SN12C 0.0203 µM | MDA-MB-231 0.0203 µM | SF-295 0.0262 µM | UACC-257 0.0205 µM | IGROV-1 0.0134 µM | RXF 393 0.0319 µM | M14 0.00433 µM | EKVX 0.0148 µM | TK-10 0.0506 µM | NCI-H23 0.0123 µM | DU-145 0.0103 µM | NCI-H522 0.00284 µM | Malme-3M 0.00507 µM | UO-31 0.721 µM | A549 0.0557 µM | A498 0.0526 µM | SNB-75 0.00867 µM | OVCAR-8 0.0352 µM | HL-60 0.00507 µM | M19-MEL 0.0174 µM | SNB-78 0.056 µM | MOLT-4 0.00468 µM
0.718 µM: HCT-15

CC(/C=N/N=C(N)N)=N\N=C(N)N
inactive: RPMI-8226 12.1 µM | DLD-1 48.9 µM | DMS-273 31.6 µM | SR > 57.3 µM | U-251 18.5 µM | LOX IMVI 4.18 µM | DMS-114 16.8 µM | SK-MEL-28 64.6 µM | SF-539 8.04 µM | SW-620 7.21 µM | SK-OV-3 43.4 µM | T47D 1.91 µM | UACC-62 46.6 µM | CCRF-CEM 4.73 µM | Hs-578T 33.2 µM | LXFL 529 61.9 µM | SK-MEL-2 12.8 µM | K562 8.73 µM | KM-20L2 12.8 µM | OVCAR-4 3.4 µM | KM12 2.83 µM | SF-268 3.56 µM | HCC 2998 5.57 µM | MCF7 27.4 µM | MDA-MB-435 12.9 µM | COLO 205 3.02 µM | HOP-62 6.58 µM | NCI-H460 8.97 µM | PC-3 232 µM | NCI-H226 38.5 µM | SK-MEL-5 191 µM | MDA-N 15.2 µM | XF498 2.96 µM | OVCAR-3 6.11 µM | HOP-92 3.43 µM | HCT-116 6.41 µM | ACHN 22.8 µM | SNB-19 36.1 µM | BT-549 243 µM | HOP-18 246 µM | SN12C 106 µM | MDA-MB-231 22.6 µM | NCI/ADR-RES 4.15 µM | SF-295 92.3 µM | UACC-257 140 µM | IGROV-1 279 µM | RXF 393 32.3 µM | M14 43.6 µM | EKVX 29.1 µM | TK-10 44.7 µM | NCI-H23 18.5 µM | DU-145 46.6 µM | NCI-H522 29.7 µM | Malme-3M 33.9 µM | UO-31 9.82 µM | A549 61.9 µM | A498 253 µM | SNB-75 25.2 µM | OVCAR-8 4.55 µM | HL-60 7.24 µM | SNB-78 13.6 µM | MOLT-4 9.25 µM
94 µM: HCT-15

[O-][S+](Cc1ccccn1)c1nc2ccccc2nc1-c1ccccc1 (stereo not given)
inactive: RPMI-8226 19.9 µM | DMS-273 26.1 µM | U-251 41.5 µM | DMS-114 28.2 µM | SK-MEL-28 53.8 µM | SK-OV-3 55.7 µM | CCRF-CEM 38.6 µM | LXFL 529 31.9 µM | K562 31.3 µM | OVCAR-4 26.9 µM | SF-268 66.1 µM | 786-0 47.2 µM | COLO 205 18.8 µM | NCI-H226 18.9 µM | XF498 17.5 µM | OVCAR-3 44.9 µM | HOP-92 28.3 µM | HCT-116 33.4 µM | ACHN 48.1 µM | SNB-19 62.4 µM | HT-29 44.4 µM | HOP-18 80.4 µM | SN12C 35.3 µM | SF-295 27.9 µM | UACC-257 33.1 µM | IGROV-1 36 µM | M14 36 µM | EKVX 30.7 µM | NCI-H23 34.8 µM | Malme-3M 33.1 µM | UO-31 37.7 µM | A549 47.2 µM | SNB-75 26.3 µM | OVCAR-8 26.5 µM | HL-60 20.8 µM | SNB-78 21.2 µM | MOLT-4 38.3 µM

[O-][S+](Cc1cnc2ccccc2c1)c1nc2ccccc2nc1-c1cccs1 (stereo not given)
inactive: RPMI-8226 25.4 µM | DMS-273 13.7 µM | U-251 18.7 µM | DMS-114 10.5 µM | SK-MEL-28 16.9 µM | SF-539 17.9 µM | SK-OV-3 29.2 µM | CCRF-CEM 5.08 µM | LXFL 529 8.55 µM | K562 7.46 µM | OVCAR-4 10.5 µM | SF-268 16.1 µM | OVCAR-5 13.5 µM | 786-0 13.2 µM | COLO 205 19.5 µM | XF498 4.06 µM | OVCAR-3 19.7 µM | HOP-92 11.2 µM | HCT-116 10.6 µM | ACHN 13.6 µM | SNB-19 22.4 µM | HT-29 16.6 µM | HOP-18 17.5 µM | SN12C 14.5 µM | SF-295 25.5 µM | UACC-257 16 µM | IGROV-1 16.8 µM | M14 15.1 µM | EKVX 6.31 µM | NCI-H23 14.9 µM | Malme-3M 19.2 µM | UO-31 14.8 µM | A549 19.7 µM | SNB-75 19.1 µM | OVCAR-8 17.5 µM | HL-60 4.31 µM | SNB-78 20.3 µM | MOLT-4 4.94 µM
active: NCI-H226 0.43 µM

Source: ChEMBL document CHEMBL1201862, “PubChem BioAssay data set” (2004)
